Results as given in US20070185014A1, “Methods and compositions for modulating conjunctival goblet cells” (The Schepens Eye Research Institute, Inc., priority 2006, published 2007).

Key:
[1] = system: rat conjunctival goblet cells; experiment: Goblet cell proliferation, WST tetrazolium assay (Example 3A, Fluorescence Assay); type: cell-based; conditions: for stimulation of goblet cell proliferation compared to control (no additions): 10^−7 M; for goblet cell proliferation, Ave. fold / goblet cell proliferation, fold of basal, rat101 / goblet cell proliferation, fold of basal, rat102 / goblet cell proliferation, fold of basal, rat103: 24 hrs; for goblet cell proliferation, Ave. fold: average of 3 rats; for goblet cell proliferation, fold of basal, rat101: cells from rat101; for goblet cell proliferation, fold of basal, rat102: cells from rat102; for goblet cell proliferation, fold of basal, rat103: cells from rat103
Text: Conjunctival tissue from the fomical area and the nictitating membranes were removed from male Sprague Dawley rats. Tissue pieces were placed in explant culture in RPMI supplemented with fetal bovine serum (FBS). […] Non-goblet cells, predominantly fibroblasts, were removed by scraping. Goblet cells were allowed to grow and proliferate for several days. Cells were removed from the tissue culture vessel by trypsin treatment. The number of cells was counted using a coulter counter. For measurement of proliferation 200 cells were seeded onto 96 well plates. Cells were allowed to attach and proliferate until a sparsely confluent level was obtained, about two days.
Goblet cells from passage 1 or 2 cultured as above were used for measurement of proliferation. Cells were plated at 200 cells/well. Cells were serum-starved for 24 or 48 hrs. Test compounds in varying concentrations were added to each cell well for 24 hrs. The positive control for proliferation was the addition of 10% FBS, a known maximal stimulator of proliferation. Proliferation was terminated by the removal of medium.

[2] = system: rat conjunctival goblet cells; experiment: Goblet cell proliferation, Ki-67/UEA-1/DAPi immunofluorescence assay (Example 3B); type: cell-based; conditions: 24 hours; concentration most effective in the fluorescence assay (FBS 10%)
Text: Conjunctival tissue from the fomical area and the nictitating membranes were removed from male Sprague Dawley rats. Tissue pieces were placed in explant culture in RPMI supplemented with fetal bovine serum (FBS). Over several days cells grew out of the explant and proliferated. Non-goblet cells, predominantly fibroblasts, were removed by scraping. Goblet cells were allowed to grow and proliferate for several days. Cells were removed from the tissue culture vessel by trypsin treatment. The number of cells was counted using a coulter counter. For measurement of proliferation 200 cells were seeded onto 96 well plates. […]
B. Immunofluorescence Assay This assay was used to confirm the results from the fluorescence assay. […]
Ki-67 was detected with a rhodamine secondary antibody using a filter that measures excitation wavelengths from 530-560 nm. UEA-1, which stains goblet cells, was directly conjugated to fluorescein isothyocyanate (FITC) and was detected using a filter that measures excitation wavelengths from 450-490 nm. DAPi, which stains the nuclei of all cells, was detected using a filter that measures excitation wavelengths from 400-418 nm. The percentage of proliferating goblet cells is determined by dividing the number of Ki-67 positive goblet cells by the total number of cells and multiplying by 100. […]

`CC(C)Cn1c(=O)c2[nH]cnc2n(C)c1=O` [1-isobutyl-3methylxanthine, reference compound] was tested, and the “effect on goblet cell proliferation” value ([1]; 10^−6 to 10^−3 M) was “did not increase proliferation at the concentrations tested”.

For `C[N+](C)(C)CCOC(N)=O` [Carbachol, reference compound], the “effect on goblet cell proliferation” value ([1]; 10^−6 to 10^−3 M) was “did not increase cell proliferation at any concentration”.

With `CC(C)NCC(O)c1ccc(O)c(O)c1` (stereo not shown) [Isoproterenol, reference compound] the “effect on goblet cell proliferation” value ([1]; 10^−7 to 10^−3 M, likely due to interference with the assay) was “did not increase proliferation”.

For `CCCCCCCCCCCCCC(=O)O[C@@H]1[C@@H](C)[C@@]2(O)[C@@H](C=C(CO)C[C@]3(O)C(=O)C(C)=C[C@@H]23)[C@@H]2C(C)(C)[C@]12OC(C)=O` [PMA, Phorbol myristic acid, reference compound], the “effect on goblet cell proliferation” value ([1]; 10^−8M, solubilized in less than 1% DMSO, compared to no additions) was “did not stimulate cell proliferation”.

In the case of `CCCC(=O)Nc1ncnc2c1ncn2[C@@H]1O[C@@H]2COP(=O)(O)O[C@H]2[C@H]1OC(=O)CCC` [butyryl cAMP, dibutyryl cAMP, reference compound], the “effect on goblet cell proliferation” value ([1]; 10^−6 to 10^−3 M) is reported as “did not increase proliferation at the concentrations tested”.

`CCCC(=O)O[C@@H]1[C@@H](C)[C@@]2(O)[C@@H](C=C(CO)C[C@]3(O)C(=O)C(C)=C[C@@H]23)[C@@H]2C(C)(C)[C@]12OC(=O)CCC` [phorbol dibutyrate β isoform, phorbol dibutyrate, reference compound] was tested, and the “effect on goblet cell proliferation” value ([1]; concentrations not greater than 10^−7 M, solubilized in DMSO) was “Neither isoform increased proliferation except at high concentrations” and the “effect on goblet cell proliferation” value ([1]; high concentrations, greater than 10^−7 M, effect not mediated by PKC) was “both isoforms increased proliferation”.

With “EGF: epidermal growth factor, activates ErbB-1 receptors” the “proliferation (Ki-67 positive goblet cells as percentage of total cells)” value [2] was 40% and the “stimulation of goblet cell proliferation compared to control (no additions)” value (“stimulation … compared to control (no additions)” for short) [1] was “about two”.

In the case of “Galectin-1: recombinant galectin, mono-CRD carbohydrate-binding protein, obtained from Cell Services, Massachusetts, 98% pure”, the “dose dependence of effect on goblet cell proliferation” value ([1]; 0.1 μg/ml to 5 μg/ml) is reported as “appeared to be dose dependent”, the “effect on goblet cell proliferation” value ([1]; 0.1 μg/ml to 5 μg/ml) is reported as “both galectins stimulated goblet cell proliferation” and the “goblet cell proliferation, Ave. fold” value ([1]; 0.1 ug/ml) is reported as 1.0 fold. The “goblet cell proliferation, fold of basal, rat101” value ([1]; 0.1 ug/ml) was 1.1 fold, the “goblet cell proliferation, fold of basal, rat102” value ([1]; 0.1 ug/ml) was 1.0 fold and the “goblet cell proliferation, fold of basal, rat103” value ([1]; 0.1 ug/ml) was 1.0 fold. For the same molecule, the “goblet cell proliferation, Ave. fold” value ([1]; 0.5 ug/ml) was 1.0 fold, the “goblet cell proliferation, fold of basal, rat101” value ([1]; 0.5 ug/ml) was 1.1 fold and the “goblet cell proliferation, fold of basal, rat102” value ([1]; 0.5 ug/ml) was 1.0 fold. For the same molecule, the “goblet cell proliferation, fold of basal, rat103” value ([1]; 0.5 ug/ml) was 1.0 fold, the “goblet cell proliferation, Ave. fold” value ([1]; 1.0 ug/ml) was 1.0 fold and the “goblet cell proliferation, fold of basal, rat101” value ([1]; 1.0 ug/ml) was 1.1 fold. For the same molecule, the “goblet cell proliferation, fold of basal, rat102” value ([1]; 1.0 ug/ml) was 1.0 fold, the “goblet cell proliferation, fold of basal, rat103” value ([1]; 1.0 ug/ml) was 1.0 fold and the “goblet cell proliferation, Ave. fold” value ([1]; 2.0 ug/ml) was 1.2 fold. The “goblet cell proliferation, fold of basal, rat101” value ([1]; 2.0 ug/ml) was 1.5 fold, the “goblet cell proliferation, fold of basal, rat102” value ([1]; 2.0 ug/ml) was 1.2 fold and the “goblet cell proliferation, fold of basal, rat103” value ([1]; 2.0 ug/ml) was 1.1 fold. For the same molecule, the “goblet cell proliferation, Ave. fold” value ([1]; 5.0 ug/ml) was 1.3 fold, the “goblet cell proliferation, fold of basal, rat101” value ([1]; 5.0 ug/ml) was 1.4 fold and the “goblet cell proliferation, fold of basal, rat102” value ([1]; 5.0 ug/ml) was 1.4 fold. For the same molecule, the “goblet cell proliferation, fold of basal, rat103” value ([1]; 5.0 ug/ml) was 1.2 fold.

In the case of “Galectin-3: recombinant galectin with single CRD domain and extended N-terminal region, obtained from Cell Services, Massachusetts, 98% pure”, the “dose dependence of effect on goblet cell proliferation” value ([1]; 0.1 μg/ml to 5 μg/ml) is reported as “appeared to be dose dependent”, the “effect on goblet cell proliferation” value ([1]; 0.1 μg/ml to 5 μg/ml) is reported as “both galectins stimulated goblet cell proliferation” and the “goblet cell proliferation, Ave. fold” value ([1]; 0.1 ug/ml) is reported as 1.0 fold. For the same molecule, the “goblet cell proliferation, fold of basal, rat101” value ([1]; 0.1 ug/ml) was 1.0 fold, the “goblet cell proliferation, fold of basal, rat102” value ([1]; 0.1 ug/ml) was 0.9 fold and the “goblet cell proliferation, fold of basal, rat103” value ([1]; 0.1 ug/ml) was 1.0 fold. For the same molecule, the “goblet cell proliferation, Ave. fold” value ([1]; 0.5 ug/ml) was 1.1 fold, the “goblet cell proliferation, fold of basal, rat101” value ([1]; 0.5 ug/ml) was 1.3 fold and the “goblet cell proliferation, fold of basal, rat102” value ([1]; 0.5 ug/ml) was 1.0 fold. The “goblet cell proliferation, fold of basal, rat103” value ([1]; 0.5 ug/ml) was 1.0 fold, the “goblet cell proliferation, Ave. fold” value ([1]; 1.0 ug/ml) was 1.2 fold and the “goblet cell proliferation, fold of basal, rat101” value ([1]; 1.0 ug/ml) was 1.3 fold. The “goblet cell proliferation, fold of basal, rat102” value ([1]; 1.0 ug/ml) was 1.1 fold, the “goblet cell proliferation, fold of basal, rat103” value ([1]; 1.0 ug/ml) was 1.0 fold and the “goblet cell proliferation, Ave. fold” value ([1]; 2.0 ug/ml) was 1.3 fold. For the same molecule, the “goblet cell proliferation, fold of basal, rat101” value ([1]; 2.0 ug/ml) was 1.5 fold, the “goblet cell proliferation, fold of basal, rat102” value ([1]; 2.0 ug/ml) was 1.3 fold and the “goblet cell proliferation, fold of basal, rat103” value ([1]; 2.0 ug/ml) was 1.1 fold. For the same molecule, the “goblet cell proliferation, Ave. fold” value ([1]; 5.0 ug/ml) was 1.4 fold, the “goblet cell proliferation, fold of basal, rat101” value ([1]; 5.0 ug/ml) was 1.8 fold and the “goblet cell proliferation, fold of basal, rat102” value ([1]; 5.0 ug/ml) was 1.2 fold. For the same molecule, the “goblet cell proliferation, fold of basal, rat103” value ([1]; 5.0 ug/ml) was 1.1 fold.

HGF: hepatocyte growth factor was tested, and the “effect on goblet cell proliferation” value ([1]; 15-40 ng/ml) was “Neither hepatocyte growth factor (HGF, 15-40 ng/ml) nor keratinocyte growth factor (KGF, 10-30 ng/ml), at any of the concentrations used, stimulated cell proliferation”.

In the case of Heregulin, the “stimulation … compared to control (no additions)” value [1] is reported as “more than 2 fold”.

For PDGF, the “increase in goblet cell proliferation compared to no additions” value ([1]; 5 to 25 ng/ml) was 2 fold.

For “bFGF: Basic fibroblast growth factor, also referred to as FGF-2”, the “proliferation (Ki-67 positive goblet cells as percentage of total cells)” value [2] was 70% and the “effect on goblet cell proliferation” value ([1]; 10-20 ng/ml, similar to PDGF (2-fold)) was “had similar effects”.

For “transforming growth factor (TGF)α: EGF family growth factor that activates ErbB-1 receptors”, the “stimulation … compared to control (no additions)” value [1] was “about two”.

B1: HB-EGF: Heparin binding-EGF, binds to ErbB-1 and ErbB-3 receptors (protein, UniProt Q99075 63-148, looked up)
Heparin-binding EGF-like …: DLQEADLDLLRVTLSSKPQALATPNKEEHGKRKKKGKGLGKKRDPCLRKYKDFCIHGECKYVKELRAPSCICHPGYHGERCHGLSL
With B1 the “stimulation … compared to control (no additions)” value [1] was 2 fold.

B2: KGF: keratinocyte growth factor (protein, UniProt P21781 32-194, looked up)
Fibroblast growth factor 7: CNDMTPEQMATNVNCSSPERHTRSYDYMEGGDIRVRRLFCRTQWYLRIDKRGKVKGTQEMKNNYNIMEIRTVAVGIVAIKGVESEFYLAMNKEGKLYAKKECNEDCNFKELILENHYNTYASAKWTHNGGEMFVALNQKGIPVRGKKTKKEQKTAHFLPMAIT
For B2, the “effect on goblet cell proliferation” value ([1]; 10-30 ng/ml) was “Neither hepatocyte growth factor (HGF, 15-40 ng/ml) nor keratinocyte growth factor (KGF, 10-30 ng/ml), at any of the concentrations used, stimulated cell proliferation”.
